Experimental data taken from US20080308744A1 (Beth Israel Deaconess Medical Center, priority 2003, published 2008).

Key:
[1] = Behaviour of the free dye in blood (description); conditions: small molecule form
[2] = Fluorescence spectrometry: relative fluorescent yield of 800 nm contrast agents; format: physicochemical
Procedure: The performance of these agents in rat and pig model systems of SLN mapping for the skin, gastrointestinal tract and lung were also quantitated.
All of the samples were diluted with PBS, pH7.8, or with 100% FBS according to absorbance at λmax using 1-cm path length quartz spectrometer cell, and excited at 770 nm. Fluorescence was measured by calculating the area under the curve of the intensity from 785 nm to 950 nm subtracting the fluorescence of control PBS, pH 7.8.

[3] = in DMSO; cited from earlier work
[4] = Quantum yield measurements; format: physicochemical; conditions: compared to QD

solubility in blood [1] | relative per molecule fluorescent yield to QDs ([2]; in 100% fetal bovine serum) | relative per molecule fluorescent yield to QDs ([2]; in phosphate-buffered saline) | in vivo early half-life | quantum yield ([4]; in FBS) | quantum yield ([4]; in PBS) | SMILES | quantum yield (control) [3] [%]
somewhat less soluble in blood | 0.4 | 0.1 | shorter half-life |  |  | CC1(C)C(/C=C/C=C/C=C/C=C2\N(CCCCS(=O)(=O)O)c3ccc4ccccc4c3C2(C)C)=[N+](CCCCS(=O)(=O)[O-])c2ccc3ccccc3c21 [ICG, indocyanine green] | 13
 | 1.0 | 0.4 |  | rather higher | same as that of QD | CC1(C)C(/C=C/C2=C(Oc3ccc(S(=O)(=O)O)cc3)C(=C/C=C3/N(CCCCS(=O)(=O)O)c4ccc(S(=O)(=O)[O-])cc4C3(C)C)/CCC2)=[N+](CCCCCC(=O)O)c2ccc(S(=O)(=O)O)cc21 [800CW] | 
